# According to US20150320723A1, “Use of Small Molecule Unfolder Protein Response Modulators to Treat Tumors With Active Sonic Hedgehog (SSH) Signaling Due To Smoothened (SMO) Mutation” (ST. JUDE CHILDREN'S RESEARCH HOSPITAL, priority 2013, published 2015):
# Entries after “also recorded” stand apart in the source; their conditions may differ.
# Assays:
# [1] = tested on: C318A mSmo; assay: Thapsigargin sensitivity analysis: mSmo protein stability in NIH3T3 cells, western blot of whole-cell lysates; type: cell-based, mouse; details: 1 uM thapsigargin, 4 hours prior to lysis, vs vehicle
# Procedure: (§1) Next, it was decided to determine whether the effects observed following thermal ER stress induction could be recapitulated by an ER stress modulator that is specific to the UPR. To this end, Smo-expressing cells were treated with the potent ER stress inducing compound thapsigargin. Wild type, C318A or M2 mSmo proteins was expressed in NIH3T3 cells, and treated with vehicle or thapsigargin for 4 hours prior to lysis (FIG. 6A). […] The exact mechanism by which gli1 expression is increased in the wild type mSmo background in response to thapsigargin was not known.
# (§2) For protein stability analysis in mammalian cells, ˜1×10^6NIH3T3 cells were transfected with 2 ug of wild type or mutant pcDNA3.1-amino expression vector (Carroll et al., 2012 [31]). For temperature sensitivity analysis, transfected cells were maintained at 37° C. for ˜44 hours, and then shifted to 40° C. for 4 hours prior to lysis. Whole-cell lysates were prepared in modified RIPA buffer (50 mM Tris-HCl, pH 7.4, 150 mM NaCl, 0.25% deoxycholic acid, 1% NP-40, 1 mM EDTA, 0.1% SDS, 0.5 mM DTT, and 1× PIC (Roche)) by rocking for 30 minutes at 4° C. as described (Nachtergaele et al., 2012 [62]). Cell extracts were cleared by centrifuging at 16,000×g at 4° C. for 45 minutes. Supernatants were collected and analyzed by SDS-Page and western blot using anti-GADD153/CHOP (B-3, SCBT) anti-Smo (E5, SCBT) and anti-tubulin (Cell Signaling) antibodies. For thapsigargin sensitivity analysis, NIH3T3 cells expressing wild type or mutant mSmo protein at 37° C. were treated with vehicle (ethanol) or 1 uM thapsigargin (Sigma) in DMEM containing 0.5% fetal calf serum for 4 hrs prior to lysis. Whole-cell lysates were prepared in modified RIPA buffer and analyzed as above.
# [2] = tested on: M2 mSmo (mSmoM2); assay: as above; type: cell-based, mouse; details: 1 uM thapsigargin, 4 hours prior to lysis, vs vehicle
# Procedure: as §1, §2
# [3] = tested on: wild type mSmo; assay: as above; type: cell-based, mouse; details: 1 uM thapsigargin, 4 hours prior to lysis, vs vehicle
# Procedure: as §1, §2
# [4] = tested on: mSmoM2-induced gli1 expression; assay: qPCR analysis of endogenous gli1 induction in NIH3T3 cells expressing mSmoM2; type: cell-based, mouse
# Procedure: as §1
# To assess gli1 and smo expression, NIH3T3 cells were plated as above and transfected using Fugene 6 (Promega). […] RNA was extracted using RNeasy kit (Qiagen) ˜16 hours after media exchange. cDNA was synthesized from 5 ug of RNA using SuperScript III first strand synthesis system (Invitrogen). qPCR reactions were performed on cDNA diluted 1:10 using SYBR Green PCR master mix (Applied Biosystems). GAPDH was used as a reference gene and results were analyzed using a standard 2^−ααCt method (Livak & Schmittgen, 2001 [63]). The following gene specific primers were used: […]
# (§3) qPCR analysis was performed three times in triplicate, and all data pooled. Error bars indicate standard error of the mean.
# [5] = tested on: gli1 expression in cells expressing wild type mSmo; assay: qPCR analysis of gli1 expression in NIH3T3 cells expressing wild type mSmo; type: cell-based, mouse; details: wild type mSmo-expressing NIH3T3 cells with thapsigargin; normalized to GAPDH
# Procedure: as §1
# (§4) To assess gli1 and smo expression, NIH3T3 cells were plated as above and transfected using Fugene 6 (Promega). Approximately 30 hours post transfection, culture media was replaced with complete media containing 250 nM Thapsigargin or vehicle (ethanol) control. RNA was extracted using RNeasy kit (Qiagen) ˜16 hours after media exchange. cDNA was synthesized from 5 ug of RNA using SuperScript III first strand synthesis system (Invitrogen). qPCR reactions were performed on cDNA diluted 1:10 using SYBR Green PCR master mix (Applied Biosystems). GAPDH was used as a reference gene and results were analyzed using a standard 2^−ααCt method (Livak & Schmittgen, 2001 [63]). The following gene specific primers were used: […]
# qPCR analysis was performed three times in triplicate, and all data pooled. […]
# [6] = tested on: smo expression; assay: qPCR analysis of smo expression in NIH3T3 cells expressing wild type or M2 mSmo; type: cell-based, mouse; details: thapsigargin treatment
# Procedure: as §4, §3
# [7] = tested on: GFP transgene under control of MS1096-Gal4; assay: Thapsigargin feeding of MS1096>GFP larvae: transgene expression in wing imaginal discs; type: in vivo, Drosophila; details: larvae fed thapsigargin (1 uM in food) at 22° C.
# Procedure: (§5) To confirm that thapsigargin treatment of transgenic Drosophila would not nonspecifically alter UAS/GAL4 transgene expression, the effect of feeding thapsigargin or vehicle control to larvae expressing a GFP transgene under control of the MS1096-Gal4 wing pouch driver was first tested (FIG. 8A). […] Next either wild type or C320A Myc-Smo proteins were expressed at 22° C. under control of MS1096-Gal4, and grew larvae on food containing either vehicle or thapsigargin (FIGS. 8C-D). Consistent with the in vitro results, wings from wild type Myc-Smo expressing flies were unaffected by thapsigargin treatment (FIGS. 8C-C′ compared to B, control).
# (§6) For drug treatment, 1 to 24 hour MS1096>myc-smoC320A embryos were collected and transferred to vials containing 2 mL Jazz agarose containing vehicle (ethanol) or thapsigargin (Sigma) at a final concentration of 1 uM. Drug feeding was performed across two separate crosses and multiple progeny analyzed. Representative wings from the resulting adult flies were mounted and imaged as above.
# [8] = tested on: wings from wild type Myc-Smo expressing flies; assay: Thapsigargin feeding of larvae: adult wing phenotype, wild type Myc-Smo; type: in vivo, Drosophila; details: larvae grown at 22° C. on food containing thapsigargin (1 uM) vs vehicle
# Procedure: as §5
# (§7) Fly stocks were maintained at 18° C. on Jazz mix agarose (Fisher). Crosses were performed at 22° C. or 29° C. as indicated. UAS-myc-smo, UAS-myc-smoC320A and UAS-mycsmoC339A (Carroll et al., 2012 [31]) were expressed under control of MS1096-Gal4. UAS-Xbp1-GFP (Ryon et al., 2007 [44]) was expressed under control of sgs3-Gal4. […] For wing analyses, crosses were performed at least twice, and multiple progeny analyzed. […]
# as §6, with “Representative wings from the resulting adult flies were mounted and imaged as above.” left out
# [9] = tested on: Myc-SmoC320A-induced Hh gain-of-function wing phenotypes; assay: Thapsigargin feeding of larvae: adult wing phenotype, Myc-SmoC320A; type: in vivo, Drosophila; details: larvae grown at 22° C. on food containing thapsigargin (1 uM) vs vehicle
# Procedure: as §5, §7
# as §6, with “Representative wings from the resulting adult flies were mounted and imaged as above.” left out
# [10] = tested on: Myc-SmoC320A protein; assay: Immunofluorescence of wing imaginal discs from drug-fed larvae: Myc-SmoC320A protein; type: in vivo, Drosophila; details: discs from thapsigargin-fed larvae at 22° C. vs vehicle
# Procedure: as §5, §6
# (§8) pAc-myc-smo constructs were expressed in Schneider 2 (S2) cells as described (Carroll et al., 2012 [31]). […] For all indirect immunofluorescence, the indicated primary antibodies were detected using Alexa Fluor (Invitrogen) secondary antibodies conjugated to 488 or 555 fluorophores. […]
# [11] = tested on: C320A-mediated ectopic stabilization of Ci; assay: Immunofluorescence of wing imaginal discs from drug-fed larvae: full-length Ci; type: in vivo, Drosophila; details: discs from thapsigargin-fed larvae at 22° C. vs vehicle
# Procedure: as §5, §6, §8
smiles,measurement,setting,value
C/C=C(/C)C(=O)O[C@H]1C(C)=C2[C@H]([C@@H]1OC(=O)CCCCCCC)[C@@](C)(OC(C)=O)C[C@H](OC(=O)CCC)[C@@]1(O)[C@H]2OC(=O)[C@@]1(C)O [thapsigargin],C318A mSmo protein stability,[1],destabilized
same,M2 mSmo protein stability,[2],destabilized
same,wild type mSmo protein stability,[3],not significantly affected
same,reduction of mSmoM2-mediated gli1 induction,"[4]; NIH3T3 cells, 250 nM thapsigargin ~16 hours (method), vehicle gives approx. 40-fold",approximately 50%
same,mSmoM2-induced gli1 expression (qualitative),"[4]; NIH3T3 cells, over-night treatment with 200 nM thapsigargin (FIG. 6B legend)",specific attenuation
same,"gli1 expression, fold over the mSmoWT baseline","[4]; mSmoM2-expressing NIH3T3 cells with thapsigargin, normalized to GAPDH",~18 fold
same,"gli1 expression, fold over baseline",[5],~4 fold
same,smo expression (wild type and M2 transcripts),[6],modest increase; also recorded: increased modestly
same,GFP transgene expression,[7],unaffected
same,wing phenotype of wild type Myc-Smo expressing flies,[8],unaffected
same,wing phenotype of wild type Myc-Smo expressing flies,[8]; listed as Thapsigargin,did not affect
same,Myc-SmoC320A-induced Hh gain-of-function wing phenotype,[9],significantly attenuated; also recorded: significantly reduced
same,Myc-SmoC320A protein level in wing imaginal discs,[10],significantly reduced; also recorded: significant reduction
same,C320A-mediated ectopic stabilization of Ci in wing imaginal discs,[11],reduced Ci stabilization; also recorded: dramatically reduced
